Measured values reported in ChEMBL document CHEMBL4806963, “Antagonistic peptides for frizzled-1 and frizzled-2” (2013).
Active and inactive are the calls of the source. No cut-off for these calls is given here. Where a SMILES comes first, the peptide text is derived from it. Bridges are numbered along the chain shown (N, C = ends).

Legend:
[1] = molecular target: T1, Frizzled-4 (Homo sapiens) (UniProt Q9ULV1); experiment: Agonist activity at frizzled-4 (unknown origin) expressed in human HEK293superTOP flash cells by luciferase reporter gene assay; assay type: functional, cell-based; conditions: HEK293
T1 sequence (whole entry): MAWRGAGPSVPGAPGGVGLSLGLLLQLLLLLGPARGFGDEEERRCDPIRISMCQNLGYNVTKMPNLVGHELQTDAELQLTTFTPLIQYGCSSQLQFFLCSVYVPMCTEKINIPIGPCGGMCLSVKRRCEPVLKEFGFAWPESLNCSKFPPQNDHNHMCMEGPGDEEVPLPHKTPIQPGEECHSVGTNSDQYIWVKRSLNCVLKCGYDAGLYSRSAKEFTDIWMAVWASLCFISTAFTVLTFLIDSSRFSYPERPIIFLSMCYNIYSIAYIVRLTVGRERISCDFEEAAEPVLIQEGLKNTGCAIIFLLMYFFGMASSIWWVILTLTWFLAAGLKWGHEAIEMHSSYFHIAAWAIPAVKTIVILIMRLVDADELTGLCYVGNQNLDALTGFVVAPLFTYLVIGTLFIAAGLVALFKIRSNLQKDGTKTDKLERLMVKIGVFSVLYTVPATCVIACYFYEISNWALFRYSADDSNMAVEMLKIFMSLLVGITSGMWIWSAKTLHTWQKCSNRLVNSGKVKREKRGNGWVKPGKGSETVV

[2] = molecular target: Frizzled-5 (Homo sapiens) (UniProt Q13467); experiment: Agonist activity at frizzled-5 (unknown origin) expressed in human HEK293superTOP flash cells by luciferase reporter gene assay; assay type: functional, cell-based; conditions: HEK293
Sequence of Frizzled-5 (Homo sapiens) (Q13467 whole entry): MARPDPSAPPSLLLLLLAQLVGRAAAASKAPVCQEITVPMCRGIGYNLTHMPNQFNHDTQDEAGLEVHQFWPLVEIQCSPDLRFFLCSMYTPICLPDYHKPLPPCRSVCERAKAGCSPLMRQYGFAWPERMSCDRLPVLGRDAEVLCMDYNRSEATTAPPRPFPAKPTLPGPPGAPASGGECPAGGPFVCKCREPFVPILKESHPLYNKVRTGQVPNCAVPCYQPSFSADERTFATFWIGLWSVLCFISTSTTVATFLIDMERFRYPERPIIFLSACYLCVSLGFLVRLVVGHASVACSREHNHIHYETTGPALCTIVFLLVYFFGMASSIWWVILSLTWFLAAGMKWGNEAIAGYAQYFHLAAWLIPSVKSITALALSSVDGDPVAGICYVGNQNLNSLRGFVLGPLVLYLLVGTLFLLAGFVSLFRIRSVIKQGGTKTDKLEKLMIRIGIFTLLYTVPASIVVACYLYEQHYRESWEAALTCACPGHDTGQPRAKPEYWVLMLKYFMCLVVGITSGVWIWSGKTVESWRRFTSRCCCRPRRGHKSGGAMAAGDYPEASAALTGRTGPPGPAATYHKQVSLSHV

[3] = molecular target: Frizzled-1 (Rattus norvegicus) (UniProt Q08463); experiment: Agonist activity at rat frizzled-1 expressed in human HEK293superTOP flash cells by luciferase reporter gene assay; assay type: cell-based; conditions: HEK293
Sequence of Frizzled-1 (Rattus norvegicus) (Q08463 whole entry): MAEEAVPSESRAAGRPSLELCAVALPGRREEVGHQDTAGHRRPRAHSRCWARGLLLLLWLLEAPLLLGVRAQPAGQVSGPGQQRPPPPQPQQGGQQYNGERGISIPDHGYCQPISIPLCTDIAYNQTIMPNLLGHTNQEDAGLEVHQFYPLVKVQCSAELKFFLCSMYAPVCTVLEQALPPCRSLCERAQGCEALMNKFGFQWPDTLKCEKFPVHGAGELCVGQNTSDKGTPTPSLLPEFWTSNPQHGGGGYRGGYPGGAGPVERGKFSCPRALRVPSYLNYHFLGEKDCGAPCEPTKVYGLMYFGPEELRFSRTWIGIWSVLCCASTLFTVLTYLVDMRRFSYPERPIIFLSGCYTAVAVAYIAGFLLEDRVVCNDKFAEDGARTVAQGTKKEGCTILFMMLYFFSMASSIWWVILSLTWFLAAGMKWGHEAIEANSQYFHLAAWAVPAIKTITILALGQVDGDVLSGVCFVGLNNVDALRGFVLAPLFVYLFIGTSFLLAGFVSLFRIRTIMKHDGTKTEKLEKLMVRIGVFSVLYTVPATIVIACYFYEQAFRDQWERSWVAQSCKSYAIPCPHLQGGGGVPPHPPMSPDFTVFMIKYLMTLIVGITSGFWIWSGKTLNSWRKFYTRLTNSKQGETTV

[4] = molecular target: Frizzled-2 (Rattus norvegicus) (UniProt Q08464); experiment: Agonist activity at rat frizzled-2 expressed in human HEK293superTOP flash cells by luciferase reporter gene assay; assay type: cell-based; conditions: HEK293
Sequence of Frizzled-2 (Rattus norvegicus) (Q08464 29-570 limits assumed): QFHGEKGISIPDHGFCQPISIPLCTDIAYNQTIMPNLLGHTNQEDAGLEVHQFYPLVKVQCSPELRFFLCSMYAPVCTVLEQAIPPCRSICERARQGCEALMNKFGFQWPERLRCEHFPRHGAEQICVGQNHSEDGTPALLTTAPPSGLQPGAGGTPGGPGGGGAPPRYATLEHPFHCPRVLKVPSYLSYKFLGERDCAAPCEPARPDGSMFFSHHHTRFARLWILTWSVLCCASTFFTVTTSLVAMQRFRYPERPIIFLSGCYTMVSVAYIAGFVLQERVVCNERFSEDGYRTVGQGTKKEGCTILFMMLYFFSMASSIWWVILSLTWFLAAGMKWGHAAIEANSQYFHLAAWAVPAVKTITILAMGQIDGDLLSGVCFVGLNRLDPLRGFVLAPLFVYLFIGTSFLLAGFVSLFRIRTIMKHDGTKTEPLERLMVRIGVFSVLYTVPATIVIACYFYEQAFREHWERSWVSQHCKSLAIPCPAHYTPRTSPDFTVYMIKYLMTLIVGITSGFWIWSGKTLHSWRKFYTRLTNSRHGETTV

[5] = molecular target: Frizzled-1 (Rattus norvegicus) (UniProt Q08463); experiment: Antagonist activity at Wnt3a-stimulated rat frizzled-1 expressed in human HEK293superTOP flash cells at 10 nM incubated for 24 hrs by luciferase reporter gene assay relative to control; assay type: cell-based; conditions: HEK293, filed as antagonist
[6] = molecular target: Frizzled-2 (Rattus norvegicus) (UniProt Q08464); experiment: Antagonist activity at Wnt3a-stimulated rat frizzled-2 expressed in human HEK293superTOP flash cells at 10 nM incubated for 24 hrs by luciferase reporter gene assay relative to control; assay type: cell-based; conditions: HEK293, filed as antagonist
[7] = molecular target: Frizzled-1 (Rattus norvegicus) (UniProt Q08463); experiment: Antagonist activity at Wnt3a-stimulated rat frizzled-1 expressed in CHO cells incubated for 24 hrs by luciferase reporter gene assay relative to control; assay type: cell-based; conditions: filed as antagonist, concentration not given here
[8] = molecular target: Frizzled-2 (Rattus norvegicus) (UniProt Q08464); experiment: Antagonist activity at Wnt3a-stimulated rat frizzled-2 expressed in CHO cells incubated for 24 hrs by luciferase reporter gene assay relative to control; assay type: cell-based; conditions: filed as antagonist, concentration not given here
[9] = molecular target: Frizzled-1 (Rattus norvegicus) (UniProt Q08463); experiment: Antagonist activity at Wnt3a-stimulated rat frizzled-1 expressed in African green monkey COS7 cells incubated for 24 hrs by luciferase reporter gene assay relative to control; assay type: cell-based; conditions: filed as antagonist, concentration not given here
[10] = molecular target: Frizzled-2 (Rattus norvegicus) (UniProt Q08464); experiment: Antagonist activity at Wnt3a-stimulated rat frizzled-2 expressed in African green monkey COS7 cells incubated for 24 hrs by luciferase reporter gene assay relative to control; assay type: cell-based; conditions: filed as antagonist, concentration not given here
[11] = molecular target: Frizzled-1 (Rattus norvegicus) (UniProt Q08463); experiment: Agonist activity at rat frizzled-1 expressed in CHO cells by luciferase reporter gene assay; assay type: cell-based
[12] = molecular target: Frizzled-2 (Rattus norvegicus) (UniProt Q08464); experiment: Agonist activity at rat frizzled-2 expressed in CHO cells by luciferase reporter gene assay; assay type: cell-based
[13] = molecular target: Frizzled-1 (Rattus norvegicus) (UniProt Q08463); experiment: Agonist activity at rat frizzled-1 expressed in African green monkey COS7 cells by luciferase reporter gene assay; assay type: cell-based
[14] = molecular target: Frizzled-2 (Rattus norvegicus) (UniProt Q08464); experiment: Agonist activity at rat frizzled-2 expressed in African green monkey COS7 cells by luciferase reporter gene assay; assay type: cell-based
[15] = molecular target: Frizzled-1 (Rattus norvegicus, UniProt Q08463); experiment: Antagonist activity at Wnt3a-stimulated rat frizzled-1 expressed in human HEK293superTOP flash cells incubated for 24 hrs by luciferase reporter gene assay; assay type: cell-based, HEK293
Sequence of Frizzled-1 (Q08463 whole entry): as the sequence (Q08463 whole entry) above

[16] = molecular target: Frizzled-2 (Rattus norvegicus, UniProt Q08464); experiment: Antagonist activity at Wnt3a-stimulated rat frizzled-2 expressed in human HEK293superTOP flash cells incubated for 24 hrs by luciferase reporter gene assay; assay type: cell-based, HEK293
Sequence of Frizzled-2 (Q08464 whole entry): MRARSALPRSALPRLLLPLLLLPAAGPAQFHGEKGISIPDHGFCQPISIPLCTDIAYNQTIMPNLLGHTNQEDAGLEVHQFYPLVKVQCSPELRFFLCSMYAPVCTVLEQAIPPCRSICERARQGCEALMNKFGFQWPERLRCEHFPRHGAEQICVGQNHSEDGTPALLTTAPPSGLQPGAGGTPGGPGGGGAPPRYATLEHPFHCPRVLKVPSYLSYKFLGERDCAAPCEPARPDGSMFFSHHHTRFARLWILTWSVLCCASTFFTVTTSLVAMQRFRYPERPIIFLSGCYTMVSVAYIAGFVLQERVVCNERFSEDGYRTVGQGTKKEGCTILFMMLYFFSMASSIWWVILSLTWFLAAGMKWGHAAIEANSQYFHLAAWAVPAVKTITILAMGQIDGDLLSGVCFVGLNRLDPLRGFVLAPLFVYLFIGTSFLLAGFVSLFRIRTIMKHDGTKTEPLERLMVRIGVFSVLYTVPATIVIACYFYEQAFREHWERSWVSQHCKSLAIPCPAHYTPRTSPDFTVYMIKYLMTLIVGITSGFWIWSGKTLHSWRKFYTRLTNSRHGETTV

SMILES | Activity [1] | Activity [2] | Activity [3] | Activity [4] | inhibition [5] | inhibition [6] | inhibition [7] | inhibition [8] | inhibition [9] | inhibition [10] | Activity [11] | Activity [12] | Activity [13] | Activity [14] | IC50 [15] | IC50 [16]
CSCC[C@@H]1NC(=O)CNC(=O)[C@H](CCC(=O)O)NC(=O)[C@H](CO)NC(=O)[C@H]([C@@H](C)O)NC(=O)[C@H](CCCCN)NC(=O)[C@H](CC(N)=O)NC(=O)[C@@H](NC(C)=O)CSSC[C@@H](C(=O)N[C@@H](CCC(=O)O)C(=O)N[C@@H](CC(C)C)C(N)=O)NC(=O)CNC(=O)[C@H](CC(=O)O)NC1=O (Ac-CNKTSEGMDGCEL-NH2; disulfide 1-11) | inactive | inactive | – | – | – | – | – | – | – | – | – | – | – | – | – | –
CC[C@H](C)[C@H](NC(=O)CNC(C)=O)C(=O)N[C@@H](CCCCN)C(=O)N[C@@H](CCC(=O)O)C(=O)N[C@@H](CS)C(=O)N[C@@H](CCC(N)=O)C(=O)N[C@@H](Cc1ccc(O)cc1)C(=O)N[C@@H](CCC(N)=O)C(=O)N[C@@H](Cc1ccccc1)C(=O)N[C@@H](CCCNC(=N)N)C(=O)N[C@@H](Cc1c[nH]cn1)C(=O)N[C@@H](CCCNC(=N)N)C(=O)N[C@@H](CCCNC(=N)N)C(=O)N[C@@H](Cc1c[nH]c2ccccc12)C(=O)N[C@@H](CC(N)=O)C(=O)N[C@@H](CS)C(=O)N[C@@H](CO)C(=O)N[C@H](C(=O)N[C@H](C(=O)N[C@@H](CC(=O)O)C(N)=O)C(C)C)[C@@H](C)O (Ac-GIKECQYQFRHRRWNCSTVD-NH2) | – | – | inactive | inactive | 100% | 100% | 100% | 100% | 100% | 100% | inactive | inactive | inactive | inactive | – | –
CC(=O)NCC(=O)N[C@@H](CO)C(=O)N[C@@H](CS)C(=O)N[C@@H](CO)C(=O)N[C@@H](CC(C)C)C(=O)N[C@@H](CCCCN)C(=O)N[C@H](C(=O)N[C@@H](CS)C(=O)N[C@@H](Cc1c[nH]c2ccccc12)C(=O)N[C@@H](CC(C)C)C(=O)N[C@@H](CCC(N)=O)C(=O)N[C@@H](CC(C)C)C(=O)N[C@@H](C)C(=O)N[C@@H](CC(=O)O)C(N)=O)[C@@H](C)O (Ac-GSCSLKTCWLQLAD-NH2) | – | – | inactive | inactive | 100% | 100% | 100% | 100% | 100% | 100% | inactive | inactive | inactive | inactive | 2060 nM | 2110 nM
